Earlier results on one molecule are cited in patent US5093338A, “Lipophilic macrolide useful as an immunosuppressant” (Merck & Co., Inc., priority 1991, dated 1992).

Data set [1] relates to adjuvant-induced arthritis. Conditions: rats.
The test system of a further data set is transplantation. The note with it: combination with Cyclosporin A; heart, kidney, bowel, pancreas or other transplantation.
For data set [2] the following is noted: rats given heterotopic heart allografts.
The next data set has as its system antibody production. The note with it: rats.
The subject of data set [3] is heterotopic heart allografts.
In data set [4] the test system is allergic encephalomyelitis. Conditions: rats.

Take `CO[C@H]1C[C@@H]2CC[C@@H](C)[C@@](O)(O2)C(=O)C(=O)N2CCCC[C@H]2C(=O)O[C@H]([C@H](C)C[C@@H]2CC[C@@H](O)[C@H](OC)C2)CC(=O)[C@H](C)/C=C(\C)[C@@H](O)[C@@H](OC)C(=O)[C@H](C)C[C@H](C)/C=C/C=C/C=C/1C` [rapamycin]: in data set [1], the “inhibiting the response to adjuvant-induced arthritis” value was “inhibiting the response to allergic encephalomyelitis,adjuvant-induced arthritis”. The “amount of Cyclosporin A required for immunosuppressive effect in combination” value in the data set with transplantation is given as “reducing the amount of Cyclosporin A required”. Also, the “toxicity compared with that anticipated with FK-506” value in data set [2] is “less toxicity was experienced than would be anticipated with FK-506”. In addition, the inhibiting antibody production entry with antibody production was “inhibiting the response to allergic encephalomyelitis,adjuvant-induced arthritis and antibody production”. Moreover, in data set [3], the “immunosuppressive in rats given heterotopic heart allografts” value is reported as “immunosuppressive”. Besides, the “inhibiting the response to allergic encephalomyelitis” value in data set [4] is on record as “inhibiting the response to allergic encephalomyelitis”.
